According to US9528092B2, “Methods of efficiently establishing induced pluripotent stem cells under hypoxic conditions” (Kyoto University, priority 2008, dated 2016):

System: four-factor transduced MEFs
Assay: Flow cytometric analysis of Nanog-GFP-positive cells on day 9 posttransduction
Assay type: cell-based, mouse
Settings: day 5 to day 9 posttransduction, flow cytometry on day 9, four factors alone 0.01%
Method: Mice having a Nanog reporter were used as an experimental system. The Nanog reporter used was prepared by inserting the enhanced green fluorescent protein (EGFP) and puromycin resistant genes into the Nanog locus of a BAC (bacterial artificial chromosome) purchased from BACPAC Resources [Okita K. et al., Nature 448, 313-317 (2007)]. The mouse Nanog gene is expressed specifically in pluripotent cells such as ES cells and early embryos. The mouse iPS cells that have become positive for this reporter are known to be nearly equivalent to ES cells in terms of differentiation potential. Mouse embryonic fibroblasts (MEFs) and tail-tip fibroblasts (TTFs) obtained from a Nanog reporter mouse having this Nanog reporter [Okita K. et al., Nature 448, 313-317 (2007)] were transfected by means of retroviruses to establish iPS cells, and colonies expressing EGFP from the Nanog reporter were counted to evaluate the efficiency of establishment of iPS cells.
To investigate whether GFP-positive cells were detected earlier or not, the four-factor transduced MEFs were cultivated under 20% oxygen or under 5% oxygen with or without 2 mM valproic acid (VPA) from day 5 to day 9 posttransduction, and were subjected to flow cytometric analysis on day 9. Retroviral expression of four factors induced 0.01% of the cells to become GFP-positive on day 9 posttransduction. […]

## CCCC(CCC)C(=O)O [VPA, valproic acid]
2 mM VPA, 20% oxygen
  percentage of GFP-positive cells: 0.48%
co-treatment with hypoxia (5% oxygen) and 2 mM VPA
  percentage of GFP-positive cells: 2.28%
